Test results taken from PubChem BioAssay AID977614 (Broad Institute, 2014).
The source made the active and inactive calls.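 How the source made its calls: active means parasite count per well reduced by over 3 SD from the mean, with host cell number above 80% of untreated; inactive means the rest.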

System: L. donovani amastigotes in THP-1 macrophages, DAPI imaging, 72 h
Experiment: L. donovani intracellular amastigote growth inhibitors, imaging, THP-1 host macrophages, single concentration (AID 977614);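 further: signal is the parasite per host cell ratio from DAPI stained kinetoplasts and nuclei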

Row | SMILES | AC50
1 | COc1cccc(C(=O)N2C[C@H]3[C@@H](c4ccccc42)[C@@H](CO)N3C(=O)c2cccc(F)c2)c1 | > 10 µM (inactive)
2 | CCN(C[C@@H]1[C@@H](c2ccccc2)[C@@H](CO)N1C(=O)COC)S(C)(=O)=O | > 10 µM (inactive)
3 | C[C@@H]1CN([C@@H](C)CO)C(=O)CCCn2cc(nn2)CO[C@@H]1CN(C)S(=O)(=O)c1ccc(-n2cccn2)cc1 | > 10 µM (inactive)
4 | COCC(=O)NC[C@H]1[C@H](c2ccccc2)[C@H](CO)N1C(=O)c1ccccc1 | > 10 µM (inactive)
5 | CCN(C[C@@H]1[C@@H](c2ccccc2)[C@H](CO)N1S(C)(=O)=O)C(=O)C1CCCC1 | > 10 µM (inactive)
6 | COc1cccc(NC(=O)N2[C@H](CO)[C@@H](c3ccccc3)[C@H]2CNCC(C)C)c1 | > 10 µM (inactive)
7 | C/C=C/c1ccc([C@H]2[C@@H](CO)N(S(=O)(=O)CC)[C@H]2CN(C)C(=O)CC)cc1 | > 10 µM (inactive)
8 | C[C@@H]1CN([C@H](C)CO)C(=O)CCCn2cc(nn2)CO[C@@H]1CN(C)C(=O)Nc1cccc2ccccc12 | > 10 µM (inactive)
9 | O=C(Nc1ccc(Cl)cc1)N1C[C@@H]2[C@H](c3ccccc31)[C@H](CO)N2CC1CCCCC1 | > 10 µM (inactive)
10 | C[C@H](CO)N1C[C@H](C)[C@@H](CN(C)C(=O)Nc2ccc(-c3cccs3)cc2)OCc2cnnn2CCCC1=O | > 10 µM (inactive)
11 | O=S(=O)(c1ccc(F)cc1)N1C[C@H]2[C@@H](c3ccccc31)[C@@H](CO)N2Cc1ccccc1Cl | > 10 µM (inactive)
12 | CCN(C[C@H]1[C@H](c2ccccc2)[C@H](CO)N1CC1CC1)C(=O)c1ccccn1 | > 10 µM (inactive)
13 | OC[C@@H]1[C@H]2c3ccccc3NC[C@H]2N1Cc1cccnc1 | > 10 µM (inactive)
14 | C[C@@H]1CN([C@H](C)CO)C(=O)CCCn2cc(nn2)CO[C@H]1CN(C)C(=O)c1ccc(N2CCN(C)CC2)cc1 | > 10 µM (inactive)
15 | CCN(C[C@@H]1N[C@@H](CO)[C@H]1c1ccccc1)C(=O)c1ccncc1 | > 10 µM (inactive)
16 | COCC(=O)N1C[C@H]2[C@@H](c3ccccc31)[C@@H](CO)N2C(=O)c1ccccc1F | > 10 µM (inactive)
17 | C/C=C/c1ccc([C@@H]2[C@H](CO)N(C(C)=O)[C@H]2CN(C(C)=O)C2CCCC2)cc1 | > 10 µM (inactive)
18 | C[C@@H]1CN([C@H](C)CO)C(=O)CCCn2nncc2CO[C@@H]1CN(C)C(=O)CCC(F)(F)F | > 10 µM (inactive)
19 | C/C=C/c1ccc([C@H]2[C@@H](CNC(=O)CC3CC3)N(C(=O)CC)[C@H]2CO)cc1 | > 10 µM (inactive)
20 | CN(C[C@H]1N[C@@H](CO)[C@@H]1c1ccccc1)C(=O)c1ccccn1 | > 10 µM (inactive)
21 | C[C@@H]1CN([C@H](C)CO)C(=O)CCCn2nncc2CO[C@@H]1CN(C)Cc1ccc2c(c1)OCCN2C | > 10 µM (inactive)
22 | Cc1cccc(S(=O)(=O)N2C[C@@H]3[C@H](c4ccccc42)[C@H](CO)N3Cc2ccc3c(c2)OCO3)c1 | > 10 µM (inactive)
23 | COc1ccc(C(=O)N2C[C@H]3[C@@H](c4ccccc42)[C@@H](CO)N3C(=O)NC(C)C)cc1 | > 10 µM (inactive)
24 | C/C=C/c1ccc([C@H]2[C@@H](CNC(C)C)N(C(=O)c3ccccn3)[C@H]2CO)cc1 | > 10 µM (inactive)
25 | C[C@H](CO)N1C[C@H](C)[C@H](CN(C)C(=O)Nc2cccc(Oc3ccccn3)c2)OCc2cnnn2CCCC1=O | > 10 µM (inactive)
26 | Cc1noc(C)c1S(=O)(=O)N(C)C[C@@H]1OCc2cnnn2CCCC(=O)N([C@@H](C)CO)C[C@@H]1C | > 10 µM (inactive)

Row | SMILES | AC50
27 | COCC(=O)N1[C@@H](CO)[C@@H]2c3ccccc3N(C)C[C@@H]21 | > 10 µM (inactive)
28 | O=C(c1ccccc1F)N1C[C@H]2[C@@H](c3ccccc31)[C@H](CO)N2Cc1ccc2c(c1)OCO2 | > 10 µM (inactive)
29 | C[C@@H]1CN([C@@H](C)CO)C(=O)CCCn2nncc2CO[C@@H]1CN(C)S(=O)(=O)c1ccccc1C#N | > 10 µM (inactive)
30 | O=C(C1CCC1)N1C[C@H]2[C@@H](c3ccccc31)[C@H](CO)N2C(=O)Nc1cccc(F)c1 | > 10 µM (inactive)
31 | O=C(CC(F)(F)F)N1C[C@H]2[C@@H](c3ccccc31)[C@H](CO)N2C(=O)c1ccncc1 | > 10 µM (inactive)
32 | O=C(NC[C@H]1[C@@H](c2ccccc2)[C@@H](CO)N1C(=O)C1CCC1)NC1CCCC1 | > 10 µM (inactive)
33 | CCCNC(=O)N1C[C@@H]2[C@H](c3ccccc31)[C@H](CO)N2C(=O)CN1CCOCC1 | > 10 µM (inactive)
34 | COc1ccc(CN(C)C[C@H]2OCc3cnnn3CCCC(=O)N([C@H](C)CO)C[C@@H]2C)cc1 | > 10 µM (inactive)
35 | C/C=C/c1ccc([C@H]2[C@@H](CO)N[C@@H]2CNC(=O)C2CC2)cc1 | > 10 µM (inactive)
36 | CC(C)N(C[C@H]1[C@H](c2ccccc2)[C@H](CO)N1S(C)(=O)=O)C(=O)CN(C)C | > 10 µM (inactive)
37 | CC(=O)N1[C@H](CO)[C@H](c2ccc(C3=CCCCC3)cc2)[C@@H]1CNC(=O)CN(C)C | > 10 µM (inactive)
38 | CC(=O)N1[C@H](CO)[C@H](c2ccc(-c3ccccc3F)cc2)[C@@H]1CNC(C)C | > 10 µM (inactive)
39 | C[C@@H]1CN([C@H](C)CO)C(=O)CCCn2nncc2CO[C@@H]1CN(C)C(=O)Nc1ccnc(N2CCOCC2)c1 | > 10 µM (inactive)
40 | COc1ccc(C(=O)N2C[C@@H]3[C@H](c4ccccc42)[C@H](CO)N3Cc2ccccc2Cl)cc1 | > 10 µM (inactive)
41 | C[C@H](CO)N1C[C@H](C)[C@@H](CN(C)Cc2ccc3c(c2)OCCN3C)OCc2cnnn2CCCC1=O | > 10 µM (inactive)
42 | C[C@H](CO)N1C[C@H](C)[C@@H](CN(C)C(=O)CCC(F)(F)F)OCc2cnnn2CCCC1=O | > 10 µM (inactive)
43 | CCN(C[C@@H]1[C@@H](c2ccccc2)[C@@H](CO)N1C(C)=O)C(=O)NC1CCCC1 | > 10 µM (inactive)
44 | CCCNC(=O)N(C)C[C@H]1[C@H](c2ccccc2)[C@@H](CO)N1C(=O)c1ccccc1 | > 10 µM (inactive)
45 | CC(C)N(C[C@H]1[C@@H](c2ccccc2)[C@@H](CO)N1CC1CC1)C(=O)C1CCC1 | > 10 µM (inactive)
46 | C[C@@H]1CN([C@@H](C)CO)C(=O)CCCn2nncc2CO[C@H]1CN(C)Cc1ccccc1C(=O)O | > 10 µM (inactive)
47 | C[C@H]1CN([C@@H](C)CO)C(=O)CCCn2nncc2CO[C@H]1CN(C)Cc1ccccc1C(=O)O | > 10 µM (inactive)
48 | CC(=O)N1[C@H](CO)[C@H](c2ccccc2)[C@H]1CN(CC1CCC1)C(=O)CN(C)C | > 10 µM (inactive)
49 | O=C(NC[C@@H]1[C@@H](c2ccccc2)[C@@H](CO)N1C(=O)Cc1ccncc1)C1CCC1 | > 10 µM (inactive)
50 | C/C=C/c1ccc([C@H]2[C@@H](CO)N(C(=O)CC)[C@H]2CN(C)Cc2cncnc2)cc1 | > 10 µM (inactive)
51 | COc1ccccc1S(=O)(=O)N(C)C[C@H]1OCc2cn(nn2)CCCC(=O)N([C@H](C)CO)C[C@@H]1C | > 10 µM (inactive)
52 | C[C@@H]1CN([C@H](C)CO)C(=O)CCCn2nncc2CO[C@H]1CN(C)C(=O)Oc1cccc2ccccc12 | > 10 µM (inactive)

Row | SMILES | AC50
53 | Cc1noc(C)c1S(=O)(=O)N(C)C[C@H]1OCc2cn(nn2)CCCC(=O)N([C@H](C)CO)C[C@@H]1C | > 10 µM (inactive)
54 | COc1ccc(CN2[C@H](CO)[C@@H]3c4ccccc4N(C(=O)NC(C)C)C[C@@H]32)cc1 | > 10 µM (inactive)
55 | COCC(=O)N(C[C@@H]1[C@@H](c2ccccc2)[C@@H](CO)N1C(=O)NC(C)C)C(C)C | > 10 µM (inactive)
56 | OC[C@@H]1[C@H](c2ccc(-c3ccc(F)cc3)cc2)[C@@H](CNC2CCCC2)N1CCC(F)(F)F | > 10 µM (inactive)
57 | CCCNC[C@H]1[C@@H](c2ccc(C3=CCCCC3)cc2)[C@@H](CO)N1C(=O)C1CCC1 | > 10 µM (inactive)
58 | CCC(=O)N1C[C@H]2[C@@H](c3ccccc31)[C@@H](CO)N2C(=O)CC1CC1 | > 10 µM (inactive)
59 | C[C@H]1CN([C@@H](C)CO)C(=O)CCCn2nncc2CO[C@H]1CN(C)C(=O)Nc1ccc(-c2cccs2)cc1 | > 10 µM (inactive)
60 | CC(=O)N1[C@H](CO)[C@H](c2ccccc2)[C@H]1CN(CC(C)C)C(=O)c1ccccn1 | > 10 µM (inactive)
61 | O=C(c1ccccc1)N1C[C@H]2[C@@H](c3ccccc31)[C@@H](CO)N2Cc1ccccn1 | > 10 µM (inactive)
62 | O=C(NC[C@@H]1[C@@H](c2ccccc2)[C@H](CO)N1C(=O)C1CCC1)NC1CCCC1 | > 10 µM (inactive)
63 | CC(=O)N1[C@H](CO)[C@@H](c2ccccc2)[C@H]1CN(CC(C)C)C(=O)c1ccccn1 | > 10 µM (inactive)
64 | C[C@@H]1CN([C@H](C)CO)C(=O)CCCn2cc(nn2)CO[C@@H]1CN(C)C(=O)Oc1ccc2ccccc2c1 | > 10 µM (inactive)
65 | Cc1cccc(S(=O)(=O)N2C[C@H]3[C@@H](c4ccccc42)[C@H](CO)N3C(=O)c2ccccc2)c1 | > 10 µM (inactive)
66 | COc1ccccc1NC(=O)N1C[C@H]2[C@@H](c3ccccc31)[C@H](CO)N2CC1CCOCC1 | > 10 µM (inactive)
67 | CC(=O)N1[C@H](CN(CC(C)C)C(=O)c2ccccn2)[C@H](c2ccccc2)[C@@H]1CO | > 10 µM (inactive)
68 | CCC(=O)N1C[C@H]2[C@@H](c3ccccc31)[C@H](CO)N2Cc1ccc(F)cc1 | > 10 µM (inactive)
69 | C/C=C/c1ccc([C@H]2[C@@H](CO)N(C(C)=O)[C@H]2CNC(=O)c2ccccc2)cc1 | > 10 µM (inactive)
70 | C/C=C/c1ccc([C@H]2[C@@H](CO)N(CCC)[C@H]2CNC(=O)CN2CCOCC2)cc1 | > 10 µM (inactive)
71 | CC(C)CN(C[C@H]1N[C@H](CO)[C@@H]1c1ccccc1)C(=O)C1CCCCC1 | > 10 µM (inactive)
72 | COCC(=O)NC[C@H]1[C@H](c2ccccc2)[C@@H](CO)N1C(=O)c1ccccc1 | > 10 µM (inactive)
73 | COCC(=O)N1C[C@H]2[C@@H](c3ccccc31)[C@@H](CO)N2Cc1cc(F)ccc1F | > 10 µM (inactive)
74 | COc1ccc(NC(=O)N(C)C[C@H]2OCc3cnnn3CCCC(=O)N([C@@H](C)CO)C[C@H]2C)c(OC)c1 | > 10 µM (inactive)
75 | CCC(=O)N1[C@@H]2CN(C(=O)Nc3ccc(Cl)cc3)c3ccccc3[C@@H]2[C@@H]1CO | > 10 µM (inactive)
76 | C[C@H](CO)N1C[C@H](C)[C@H](CN(C)C(=O)Nc2ccc3c(c2)OCCO3)OCc2cnnn2CCCC1=O | > 10 µM (inactive)
